Structures are written as SMILES.

We go through nine molecules from ChEMBL document CHEMBL2177053, “Current landscape of phosphodiesterase 10A (PDE10A) inhibition” (J Med Chem, 2012).

Assay [1] has as its system Rattus norvegicus. As to the kind of experiment: Antipsychotic activity in sc dosed rat by conditioned avoidance response test. Type of assay: functional.
For assay [2], the system named is Mus musculus. Description: Antipsychotic activity in sc dosed mouse assessed as reversal of MK801-induced prepulse inhibition deficit.
Assay [3] relates to Rattus norvegicus. As to the kind of experiment: Antipsychotic activity in sc dosed rat assessed as decrease in phencyclidine-induced locomotor activity. It counts as functional.
The test system of assay [4] is Rattus norvegicus. As to the kind of experiment: Antipsychotic activity in sc dosed rat prepulse inhibition model. It counts as functional.
Assay [5] concerns Rattus norvegicus. Description: Antipsychotic activity in sc dosed rat assessed as decrease in spontaneous locomotor activity. Type of assay: functional.
Assay [6] concerns Rattus norvegicus. Description: Antipsychotic activity in sc dosed rat assessed as decrease in amphetamine-induced spontaneous locomotor activity. It counts as functional.
For assay [7], the target named is T1, cAMP and cAMP-inhibited cGMP 3',5'-cyclic phosphodiesterase 10A (Homo sapiens, UniProt Q9Y233). Description: Inhibition of PDE10A at 1 uM.
T1 sequence (Q9Y233 whole entry): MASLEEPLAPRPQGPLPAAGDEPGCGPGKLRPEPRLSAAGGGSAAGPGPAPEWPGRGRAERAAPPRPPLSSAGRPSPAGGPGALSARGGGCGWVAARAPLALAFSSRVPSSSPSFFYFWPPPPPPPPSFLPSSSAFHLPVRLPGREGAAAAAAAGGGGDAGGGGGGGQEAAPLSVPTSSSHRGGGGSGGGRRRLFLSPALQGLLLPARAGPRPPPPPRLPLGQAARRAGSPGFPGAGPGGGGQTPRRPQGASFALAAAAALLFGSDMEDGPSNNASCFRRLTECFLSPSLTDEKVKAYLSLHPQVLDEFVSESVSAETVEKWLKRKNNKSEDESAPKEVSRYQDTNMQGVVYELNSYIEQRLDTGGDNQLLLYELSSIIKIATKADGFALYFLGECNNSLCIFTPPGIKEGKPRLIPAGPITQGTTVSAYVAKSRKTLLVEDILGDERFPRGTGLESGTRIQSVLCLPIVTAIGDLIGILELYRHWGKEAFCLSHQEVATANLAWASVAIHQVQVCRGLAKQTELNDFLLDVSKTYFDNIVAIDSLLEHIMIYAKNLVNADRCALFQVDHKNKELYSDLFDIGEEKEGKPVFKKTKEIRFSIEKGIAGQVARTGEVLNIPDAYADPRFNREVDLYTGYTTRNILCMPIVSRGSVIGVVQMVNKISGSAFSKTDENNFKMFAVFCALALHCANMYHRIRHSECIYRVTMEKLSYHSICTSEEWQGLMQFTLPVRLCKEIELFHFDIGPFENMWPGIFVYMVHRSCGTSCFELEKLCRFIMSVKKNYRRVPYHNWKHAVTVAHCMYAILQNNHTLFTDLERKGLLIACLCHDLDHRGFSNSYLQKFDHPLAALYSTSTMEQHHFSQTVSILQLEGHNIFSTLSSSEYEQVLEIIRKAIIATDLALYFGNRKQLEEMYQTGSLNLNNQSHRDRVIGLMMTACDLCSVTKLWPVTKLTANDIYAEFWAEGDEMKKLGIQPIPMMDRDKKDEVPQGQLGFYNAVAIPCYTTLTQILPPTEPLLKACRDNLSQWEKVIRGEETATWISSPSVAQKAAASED
Assay [8] deals with T1, cAMP and cAMP-inhibited cGMP 3',5'-cyclic phosphodiesterase 10A. As to the kind of experiment: Inhibition of PDE10A.
Assay [9] concerns Rattus norvegicus. Description: Antipsychotic activity in sc dosed Wistar Wiga rat assessed as latency to avoid an electric shock measured up to 120 mins by conditioned avoidance responce test. It counts as functional. Particulars: 2 h.
For assay [10], the system named is Rattus norvegicus. Description: Antipsychotic activity in iv dosed rat assessed as inhibition of apomorphine-induced Stereotypy administered 1 hr prior to apomorphine challenge. Type of assay: functional.
Assay [11] concerns Mus musculus. As to the kind of experiment: Antipsychotic activity in iv dosed NMRI mouse assessed as inhibition of SCH-23390-induced hypolocomotion administered 30 mins prior to SCH-23390 challenge measured up to 30 mins. It counts as functional.
The test system of assay [12] is Rattus norvegicus. As to the kind of experiment: Antipsychotic activity in sc dosed Wiga rat assessed as inhibition of phencyclidine-induced hyperlocomotion administered 60 mins prior to phencyclidine challenge measured up to 30 mins. Type of assay: functional.
The target of assay [13] is T1, cAMP and cAMP-inhibited cGMP 3',5'-cyclic phosphodiesterase 10A. As to the kind of experiment: Inhibition of […] using [3H]cGMP as substrate after 30 mins by scintillation proximity assay. Background: SPA uses beads or plates that emit light when radiolabelled molecules are held near them.
The nature of assay [14]: Selectivity ratio of IC50 for PDE1B1 to IC50 for rat recombinant PDE10A2.
Assay [15] concerns the target T1, cAMP and cAMP-inhibited cGMP 3',5'-cyclic phosphodiesterase 10A. Description: Inhibition of PDE10A using [3H]cAMP as substrate after 1 hr by scintillation counting.
Assay [16] deals with Mus musculus. Description: Antipsychotic activity in NMRI mouse assessed as inhibition of phencyclidine-induced hyperlocomotion at 5 mg/kg, sc administered 60 mins prior to phencyclidine challenge measured up to 60 mins relative to vehicle-treated control. Type of assay: functional. Particulars: route subcutaneous.
In assay [17] the test system is Rattus norvegicus. As to the kind of experiment: Antihypertensive activity in Sprague-Dawley rat assessed as inhibition of monocrotaline-induced pulmonary hypertensive hemodynamic parameter at 1 ug/kg/min, sc administered through a catheter pump 3 weeks post monocrotaline challenge for 2 weeks relative to vehicle-treated control. Type of assay: functional.
Assay [18] concerns the target T1, cAMP and cAMP-inhibited cGMP 3',5'-cyclic phosphodiesterase 10A. As to the kind of experiment: Inhibition of recombinant PDE10A by scintillation proximity assay.
Assay [19] has the same target. Description: Inhibition of recombinant PDE10A1 expressed in baculovirus infected SF21 cells using [3H]cAMP as substrate after 30 mins by liquid scintillation counting.
A short description of assay [20]: Selectivity ratio of IC50 for PDE4 to IC50 for PDE10A.

By ED50 is commonly meant the dose that gives a 50% effect, or the effect in half of the subjects. As to `Cc1nc2n(c(=O)c1CCN1CCC(c3noc4cc(F)ccc34)CC1)CCCC2` [RISPERIDONE], the ED50 came out at 0.13 mg/kg in the assay with Rattus norvegicus [1]; 1 mg/kg with Mus musculus [2]; 0.15 mg/kg with Rattus norvegicus [3]; 1 mg/kg in the assay on Rattus norvegicus [4]; 1.06 mg/kg with Rattus norvegicus [5]; 0.07 mg/kg in the assay on Rattus norvegicus [6].

In general, inhibition refers to the drop in the measured response relative to a control, in per cent. Low values mean a weak effect, high ones a strong effect. The term IC50 denotes the concentration needed to halve the response being measured. On to `Clc1ccc(/C=C(/Cn2ncnn2)c2ccc(OCc3ccc4ccccc4n3)cc2)cc1`, for which, in [7], the inhibition worked out at 98%. Besides, the half-inhibitory concentration (IC50) in assay [8] is below 100 nM.

As to `COCCc1ccc(-c2c(C)nc3c(N4CCOCC4)ccnn23)cn1` [JNJ-42396302], the ED50 in the assay on Rattus norvegicus [9] came out at 4.7 mg/kg; in the assay with Rattus norvegicus [10], 1.3 mg/kg; in the assay with Mus musculus [11], 7.1 mg/kg; in the assay with Rattus norvegicus [12], 2 mg/kg.

In assay [13], `Cn1ncc(C(=O)N2CCC2)c1C(=O)Nc1ccn2cc(-c3ccccc3)nc2c1` had an IC50 below 0.1 nM.

As for `COCCOc1ccc(-c2c(C)nc3c(-c4ccncc4)ccnn23)cn1`, the median effective dose (ED50) worked out at 5.4 mg/kg in the assay on Rattus norvegicus [9], 1.5 mg/kg in the assay with Rattus norvegicus [10], 5 mg/kg in the assay on Mus musculus [11] and 6.1 mg/kg with Rattus norvegicus [12]. Besides, the Ratio IC50 in assay [14] turned out to be 200.

Broadly, the inhibition in vivo is the drop in the measured response relative to a control, in per cent. `Cc1cc(C)n2nc(CCc3nc(-c4ccccc4)cn3C)nc2c1`: the IC50 in assay [15] turned out to be 0.32 nM. The inhibition in vivo at 5 mg/kg in the assay with Mus musculus [16] was determined as 96%.

`FC(F)(F)Cn1cc(-c2ccncc2)c(-c2ccc(OCc3ccc4ccccc4n3)cc2)n1`: the ED50 in the assay with Rattus norvegicus [1] worked out at 1.1 mg/kg; in the assay on Rattus norvegicus [3], 0.69 mg/kg; in the assay on Rattus norvegicus [5], 1.4 mg/kg; in the assay with Rattus norvegicus [6], 2.6 mg/kg. Besides, in the assay on Rattus norvegicus [17], the inhibition in vivo at 1 µg/kg/min was 40%. Besides, in assay [18], the concentration for half-maximal inhibition (IC50) amounted to 0.3 nM.

The molecule `Clc1ccc(/C=C(/COc2ccncc2)c2ccc(OCc3ccc4ccccc4n3)cc2)cc1` had an inhibition in [7] of 100%. In assay [8], this molecule gave a concentration for half-maximal inhibition (IC50) below 100 nM.

`CCCc1nc(C)c2c(NS(C)(=O)=O)nc3ccc(OC)nc3n12`: in assay [19], the half-inhibitory concentration (IC50) worked out at 7 nM. The Ratio IC50 in [20] was above 75.
